The first assay has as its target HLA-B*44:05 (Homo sapiens, UniProt P01889, A223V/A65T/A93T/A95T/D201E/D98Y/E176V/E187L/E204Q/E69K/G107R/H137Y/K202T/L105A/L119I/N104T/N87E/Q56L/Q94N/R106L/R155S/R180D/S101N/S121R/S35A/S48T/T118I/V36M/W191S/Y91S). Put plainly: MHC binding assay (UV-ligand exchange, β2m ELISA, peptide exchange yield). The note with it: binding to HLA-B*44:05. A digest of the protocol: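 Binding is read as exchange yield, i.e. stabilized complex remaining after UV cleavage of a photolabile ligand in the presence of the candidate peptide. Streptavidin-captured monomers (100-fold dilution) are probed with HRP-anti-β2m, 1h at 37° C, TMB, A450. Standard curve: HLA-A*02:01/MLA-001 monomers at 15-500 ng/ml.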
(In general: In an ELISA, binding on a coated surface is turned into a signal by an enzyme label.)
As to “81 (GEKATMQNL; listed as Homo sapiens) [compound 81]”, the “Peptide exchange (MHC class I binding score, peptide exchange yield)” value (“Peptide exchange” below) is recorded as “++ (>20% = ++)”.

For “89 (KEFYPVKEF; listed as Homo sapiens) [compound 89]”, the “Peptide exchange” value is “++ (>20% = ++)”.

With “123 (DEINHQSL; listed as Homo sapiens) [compound 123]”, the “Peptide exchange” value is recorded as “++ (>20% = ++)”.

Take “46 (SELGLPKEV; listed as Homo sapiens) [compound 46]”: the “Peptide exchange” value is recorded as “++ (>20% = ++)”.

As for “197 (NEILTIHF; listed as Homo sapiens) [compound 197]”, the “Peptide exchange” value is reported as “++ (>20% = ++)”.

For “364 (EECDKAYSF; listed as Homo sapiens) [compound 364]”, the “Peptide exchange” value is “++ (>20% = ++)”.

On to “400 (TELGLFGVW; listed as Homo sapiens) [compound 400]”, for which the “Peptide exchange” value is “++++ (>75% = ++++)”.

Take “225 (VEAATVSKW; listed as Homo sapiens) [compound 225]”: the “Peptide exchange” value was “+++ (>50 = +++)”.

On to “201 (MEILWKTLT; listed as Homo sapiens) [compound 201]”, for which the “Peptide exchange” value is “++++ (>75% = ++++)”.

Regarding “448 (ALSPVPSHW; listed as Homo sapiens) [compound 448]”, the “Peptide exchange” value is reported as “+++ (>50 = +++)”.

For the substance “440 (QEVAQVASA; listed as Homo sapiens) [compound 440]”, the “Peptide exchange” value is listed as “++ (>20% = ++)”.

“324 (QELSSIRQF; listed as Homo sapiens) [compound 324]”: the “Peptide exchange” value is “+++ (>50 = +++)”.

Consider “230 (AEALVDGKW; listed as Homo sapiens) [compound 230]”, for which the “Peptide exchange” value is listed as “+++ (>50 = +++)”.

As to “447 (KEFGLDSVEL; listed as Homo sapiens) [compound 447]”, the “Peptide exchange” value is on record as “+++ (>50 = +++)”.

With “107 (YQENPRAAW; listed as Homo sapiens) [compound 107]”, the “Peptide exchange” value is recorded as “++ (>20% = ++)”.

In another assay the test system is CD8+ T cells. The experiment in a line: In vitro immunogenicity: T-cell priming with aAPCs loaded with peptide/MHC and anti-CD28, pMHC multimer readout. In kind it is cell-based, human. Conditions: Table 10a, pMHC multimer readout after T-cell priming. As for the experimental part:
After three cycles of stimulation, the detection of peptide-reactive cells was performed by 2D multimer staining with B*44/SEQ ID NO: 469 (FIG. 3A), B*44/SEQ ID NO: 512 (FIG. 3B), B*44/SEQ ID NO: 9 (FIG. 3C), B*44/SEQ ID NO: 11 (D), B*44/SEQ ID NO: 17 (E), B*44/SEQ ID NO: 35 (F) or B*44/SEQ ID NO: 41 (FIG. 3G). Right panels (FIGS. 3A through 3G) show control staining of cells stimulated with irrelevant B*44/peptide complexes. Viable singlet cells were gated for CD8+ lymphocytes. Boolean gates helped excluding false-positive events detected with multimers specific for different peptides.
In order to obtain information regarding the immunogenicity of the TUMAPs of the present invention, the inventors performed investigations using an in vitro T-cell priming assay based on repeated stimulations of CD8+ T cells with artificial antigen presenting cells (aAPCs) loaded with peptide/MHC complexes and anti-CD28 antibody.
In order to perform in vitro stimulations by artificial antigen presenting cells loaded with peptide-MHC complex (pMHC) and anti-CD28 antibody, the inventors first isolated CD8+ T cells from fresh HLA-A*02 leukapheresis products via positive selection using CD8 microbeads (Miltenyi Biotec, Bergisch-Gladbach, Germany) of healthy donors obtained from the University clinics Mannheim, Germany, after informed consent.
PBMCs and isolated CD8+ lymphocytes were incubated in T-cell medium (TCM) until use consisting of RPMI-Glutamax (Invitrogen, Karlsruhe, Germany) supplemented with 10% heat inactivated human AB serum (PAN-Biotech, Aidenbach, Germany), 100 U/ml Penicillin/100 μg/ml Streptomycin (Cambrex, Cologne, Germany), 1 mM sodium pyruvate (CC Pro, Oberdorda, Germany), 20 μg/ml Gentamycin (Cambrex). 2.5 ng/ml IL-7 (PromoCell, Heidelberg, Germany) and 10 U/ml IL-2 (Novartis Pharma, Nümberg, Germany) were also added to the TCM at this step.
Generation of pMHC/anti-CD28 coated beads, T-cell stimulations and readout was performed in a highly defined in vitro system using four different pMHC molecules per stimulation condition and 8 different pMHC molecules per readout condition.
The purified co-stimulatory mouse IgG2a anti human CD28 Ab 9.3 (Jung et al., 1987) was chemically biotinylated using Sulfo-N-hydroxysuccinimidobiotin as recommended by the manufacturer (Perbio, Bonn, Germany). Beads used were 5.6 μm diameter streptavidin coated polystyrene particles (Bangs Laboratories, Illinois, USA).
800.000 beads/200 μl were coated in 96-well plates in the presence of 4×12.5 ng different biotin-pMHC, washed and 600 ng biotin anti-CD28 were added subsequently in a volume of 200 μl. Stimulations were initiated in 96-well plates by co-incubating 1×10^6 CD8+ T cells with 2×10^5 washed coated beads in 200 μl TCM supplemented with 5 ng/ml IL-12 (PromoCell) for 3 days at 37° C. Half of the medium was then exchanged by fresh TCM supplemented with 80 U/ml IL-2 and incubating was continued for 4 days at 37° C. This stimulation cycle was performed for a total of three times. For the pMHC multimer readout using 8 different pMHC molecules per condition, a two-dimensional combinatorial coding approach was used as previously described (Andersen et al., 2012) with minor modifications encompassing coupling to 5 different fluorochromes. Finally, multimeric analyses were performed by staining the cells with Live/dead near IR dye (Invitrogen, Karlsruhe, Germany), CD8-FITC antibody clone SK1 (BD, Heidelberg, Germany) and fluorescent pMHC multimers. For analysis, a BD LSRII SORP cytometer equipped with appropriate lasers and filters was used. Peptide specific cells were calculated as percentage of total CD8+ cells. Evaluation of multimeric analysis was done using the FlowJo software (Tree Star, Oregon, USA). In vitro priming of specific multimer+CD8+ lymphocytes was detected by comparing to negative control stimulations.
Turning to “506 (QESDLRLFL; listed as Homo sapiens) [compound 506]”, the “Wells positive [%]” value is reported as “+ (<20% = +)”.

Regarding “496 (AEIGEGAYGKVF; listed as Homo sapiens) [compound 496]”, the “Wells positive [%]” value is reported as “++ (20%-49% = ++)”.

“489 (SEYADTHYF; listed as Homo sapiens) [compound 489]”: the “Wells positive [%]” value was “+++ (50%-69% = +++)”.

As for “476 (MEHPGKLLF; listed as Homo sapiens) [compound 476]”, the “Wells positive [%]” value was “+ (<20% = +)”.

In the case of “459 (KEVDPAGHSY; listed as Homo sapiens) [compound 459]”, the “Wells positive [%]” value is “++ (20%-49% = ++)”.

For the substance “518 (FELPTGAGL; listed as Homo sapiens) [compound 518]”, the “Wells positive [%]” value is on record as “++ (20%-49% = ++)”.

In the case of “490 (TENRYCVQL; listed as Homo sapiens) [compound 490]”, the “Wells positive [%]” value was “++ (20%-49% = ++)”.

With “495 (RENQVLGSGW; listed as Homo sapiens) [compound 495]”, the “Wells positive [%]” value was “+++ (50%-69% = +++)”.

As for “494 (KEITGFLLI; listed as Homo sapiens) [compound 494]”, the “Wells positive [%]” value is on record as “++ (20%-49% = ++)”.

On to “461 (MEVDPIGHVYIF; listed as Homo sapiens) [compound 461]”, for which the “Wells positive [%]” value was “+ (<20% = +)”.

“510 (SEDLAVHLY; listed as Homo sapiens) [compound 510]”: the “Wells positive [%]” value is recorded as “++++ (>=70% = ++++)”.

With “463 (QEMQHFLGL; listed as Homo sapiens) [compound 463]”, the “Wells positive [%]” value is “+ (<20% = +)”.

Regarding “500 (QEVLLQTFL; listed as Homo sapiens) [compound 500]”, the “Wells positive [%]” value is on record as “+ (<20% = +)”.

As to “497 (GEGAYGKVF; listed as Homo sapiens) [compound 497]”, the “Wells positive [%]” value is reported as “+++ (50%-69% = +++)”.

“509 (AESEDLAVHLY; listed as Homo sapiens) [compound 509]”: the “Wells positive [%]” value is reported as “+ (<20% = +)”.

Consider “477 (VYEKNGYIYF; listed as Homo sapiens) [compound 477]”, for which the “Wells positive [%]” value is listed as “++++ (>=70% = ++++)”.

Consider “516 (DEYLIPQQGF; listed as Homo sapiens) [compound 516]”, for which the “Wells positive [%]” value was “+ (<20% = +)”.

As to “508 (AESEDLAVHL; listed as Homo sapiens) [compound 508]”, the “Wells positive [%]” value is “+ (<20% = +)”.

Regarding “504 (KESQLPTVM; listed as Homo sapiens) [compound 504]”, the “Wells positive [%]” value is recorded as “++ (20%-49% = ++)”.

As for “487 (LEMPHYSTF; listed as Homo sapiens) [compound 487]”, the “Wells positive [%]” value was “+++ (50%-69% = +++)”.

Turning to “501 (KEGDLGGKQW; listed as Homo sapiens) [compound 501]”, the “Wells positive [%]” value is “+ (<20% = +)”.

As for “460 (SEFMQVIF; listed as Homo sapiens) [compound 460]”, the “Wells positive [%]” value was “+ (<20% = +)”.

For the substance “488 (SENPETITY; listed as Homo sapiens) [compound 488]”, the “Wells positive [%]” value is recorded as “++ (20%-49% = ++)”.

In the case of “468 (QEQDVDLVQKY; listed as Homo sapiens) [compound 468]”, the “Wells positive [%]” value was “+ (<20% = +)”.

Consider “513 (AEKDGKLTDY; listed as Homo sapiens) [compound 513]”, for which the “Wells positive [%]” value is “+ (<20% = +)”.

In the case of “491 (YEVDTVLRY; listed as Homo sapiens) [compound 491]”, the “Wells positive [%]” value is listed as “+ (<20% = +)”.

For the substance “511 (AEAVLKTLQEL; listed as Homo sapiens) [compound 511]”, the “Wells positive [%]” value is recorded as “+ (<20% = +)”.

For “470 (EDAQGHIW; listed as Homo sapiens) [compound 470]”, the “Wells positive [%]” value was “++ (20%-49% = ++)”.

“515 (AEGGKVPIKW; listed as Homo sapiens) [compound 515]”: the “Wells positive [%]” value is reported as “++ (20%-49% = ++)”.

With “512 (AEPLVGQRW; listed as Homo sapiens) [compound 512]”, the “Wells positive [%]” value was “++++ (>=70% = ++++)”.

As to “492 (AEHNFVAKA; listed as Homo sapiens) [compound 492]”, the “Wells positive [%]” value is on record as “+ (<20% = +)”.

Take “479 (QENSYQSRL; listed as Homo sapiens) [compound 479]”: the “Wells positive [%]” value is on record as “+ (<20% = +)”.

Regarding “467 (FEYDFLLQRI; listed as Homo sapiens) [compound 467]”, the “Wells positive [%]” value was “+ (<20% = +)”.

For “474 (AEEEIMKKI; listed as Homo sapiens) [compound 474]”, the “Wells positive [%]” value is recorded as “+ (<20% = +)”.

For the origin of these results see patent publication US12065471B2, “B*44 restricted peptides for use in immunotherapy against cancers and related methods” (Immatics Biotechnologies GmbH, priority 2018, dated 2024).
